In the supplement of paper PMC8882468:

System: HCI-002 (organoid from a triple-negative breast cancer xenograft)
Assay: CTG-3D luminescence at 96 h relative to day-0 seeding control (ratio to day 0); higher = more growth / less cytotoxicity; PDxO 3D drug screen, 96 h, CTG-3D normalised to day-0 seeding control.
Details: 0.005 µM; days in culture: 209

SMILES	CTG-3D luminescence at 96 h
COc1cc2c(Oc3ccc4[nH]c(C)cc4c3F)ncnc2cc1OCCCN1CCCC1 [cediranib]	1.95
CC(C)n1nc(-c2ccc3oc(N)nc3c2)c2c(N)ncnc21 [sapanisertib]	2.27
Cc1cc(Nc2ncnc3ccc(NC4=NC(C)(C)CO4)cc23)ccc1Oc1ccn2ncnc2c1 [tucatinib]	2.08
C[C@H](NC(=O)CCC(F)(F)F)C(=O)N[C@@H]1C(=O)N(CCO)c2ncccc2-c2ccccc21 [crenigacestat]	2.22
C[C@]12CC[C@@H]3c4ccc(O)cc4C[C@@H](CCCCCCCCC[S+]([O-])CCCC(F)(F)C(F)(F)F)[C@H]3[C@@H]1CC[C@@H]2O (some centres not stated) [fulvestrant]	2.46
O=C(c1ccc(F)c(F)c1Nc1ccc(I)cc1F)N1CC(O)([C@@H]2CCCCN2)C1 [cobimetinib]	2.11
O=C(/C=C/c1cccnc1)NCCCCC1CCN(C(=O)c2ccccc2)CC1 [FK866]	1.05
CS(=O)(=O)c1ccc(C(=O)Nc2ccc(Cl)c(-c3ccccn3)c2)c(Cl)c1 [vismodegib]	2.57
C=CCn1c(=O)c2cnc(Nc3ccc(N4CCN(C)CC4)cc3)nc2n1-c1cccc(C(C)(C)O)n1 [adavosertib]	2.11

Same assay, conditions: 0.005 µM; days in culture: 227

SMILES	CTG-3D luminescence at 96 h
COc1cc2c(Oc3ccc4[nH]c(C)cc4c3F)ncnc2cc1OCCCN1CCCC1 [cediranib]	5.43
CC(C)n1nc(-c2ccc3oc(N)nc3c2)c2c(N)ncnc21 [sapanisertib]	4.01
Cc1cc(Nc2ncnc3ccc(NC4=NC(C)(C)CO4)cc23)ccc1Oc1ccn2ncnc2c1 [tucatinib]	4.84
C[C@H](NC(=O)CCC(F)(F)F)C(=O)N[C@@H]1C(=O)N(CCO)c2ncccc2-c2ccccc21 [crenigacestat]	5.03
C[C@]12CC[C@@H]3c4ccc(O)cc4C[C@@H](CCCCCCCCC[S+]([O-])CCCC(F)(F)C(F)(F)F)[C@H]3[C@@H]1CC[C@@H]2O (some centres not stated) [fulvestrant]	4.95
O=C(c1ccc(F)c(F)c1Nc1ccc(I)cc1F)N1CC(O)([C@@H]2CCCCN2)C1 [cobimetinib]	4.79
O=C(/C=C/c1cccnc1)NCCCCC1CCN(C(=O)c2ccccc2)CC1 [FK866]	3.02
CS(=O)(=O)c1ccc(C(=O)Nc2ccc(Cl)c(-c3ccccn3)c2)c(Cl)c1 [vismodegib]	3.59
C=CCn1c(=O)c2cnc(Nc3ccc(N4CCN(C)CC4)cc3)nc2n1-c1cccc(C(C)(C)O)n1 [adavosertib]	6.07

Same assay, conditions: 0.1 µM; days in culture: 62

SMILES	CTG-3D luminescence at 96 h
COc1cc2c(Oc3ccc4[nH]c(C)cc4c3F)ncnc2cc1OCCCN1CCCC1 [cediranib]	2.46
CC(C)n1nc(-c2ccc3oc(N)nc3c2)c2c(N)ncnc21 [sapanisertib]	0.903
Cc1cc(Nc2ncnc3ccc(NC4=NC(C)(C)CO4)cc23)ccc1Oc1ccn2ncnc2c1 [tucatinib]	2.78
C[C@H](NC(=O)CCC(F)(F)F)C(=O)N[C@@H]1C(=O)N(CCO)c2ncccc2-c2ccccc21 [crenigacestat]	2.68
C[C@]12CC[C@@H]3c4ccc(O)cc4C[C@@H](CCCCCCCCC[S+]([O-])CCCC(F)(F)C(F)(F)F)[C@H]3[C@@H]1CC[C@@H]2O (some centres not stated) [fulvestrant]	2.57
O=C(c1ccc(F)c(F)c1Nc1ccc(I)cc1F)N1CC(O)([C@@H]2CCCCN2)C1 [cobimetinib]	1.97
O=C(/C=C/c1cccnc1)NCCCCC1CCN(C(=O)c2ccccc2)CC1 [FK866]	0.0472
CS(=O)(=O)c1ccc(C(=O)Nc2ccc(Cl)c(-c3ccccn3)c2)c(Cl)c1 [vismodegib]	3.26
C=CCn1c(=O)c2cnc(Nc3ccc(N4CCN(C)CC4)cc3)nc2n1-c1cccc(C(C)(C)O)n1 [adavosertib]	2.4

Same assay, conditions: 0.1 µM; days in culture: 82

SMILES	CTG-3D luminescence at 96 h
COc1cc2c(Oc3ccc4[nH]c(C)cc4c3F)ncnc2cc1OCCCN1CCCC1 [cediranib]	2.52
CC(C)n1nc(-c2ccc3oc(N)nc3c2)c2c(N)ncnc21 [sapanisertib]	0.983
Cc1cc(Nc2ncnc3ccc(NC4=NC(C)(C)CO4)cc23)ccc1Oc1ccn2ncnc2c1 [tucatinib]	2.6
C[C@H](NC(=O)CCC(F)(F)F)C(=O)N[C@@H]1C(=O)N(CCO)c2ncccc2-c2ccccc21 [crenigacestat]	2.78
C[C@]12CC[C@@H]3c4ccc(O)cc4C[C@@H](CCCCCCCCC[S+]([O-])CCCC(F)(F)C(F)(F)F)[C@H]3[C@@H]1CC[C@@H]2O (some centres not stated) [fulvestrant]	2.79
O=C(c1ccc(F)c(F)c1Nc1ccc(I)cc1F)N1CC(O)([C@@H]2CCCCN2)C1 [cobimetinib]	1.88
O=C(/C=C/c1cccnc1)NCCCCC1CCN(C(=O)c2ccccc2)CC1 [FK866]	0.0661
CS(=O)(=O)c1ccc(C(=O)Nc2ccc(Cl)c(-c3ccccn3)c2)c(Cl)c1 [vismodegib]	2.65
C=CCn1c(=O)c2cnc(Nc3ccc(N4CCN(C)CC4)cc3)nc2n1-c1cccc(C(C)(C)O)n1 [adavosertib]	2.52

Same assay, conditions: 0.1 µM; days in culture: 91

SMILES	CTG-3D luminescence at 96 h
COc1cc2c(Oc3ccc4[nH]c(C)cc4c3F)ncnc2cc1OCCCN1CCCC1 [cediranib]	4.14
CC(C)n1nc(-c2ccc3oc(N)nc3c2)c2c(N)ncnc21 [sapanisertib]	1.44
Cc1cc(Nc2ncnc3ccc(NC4=NC(C)(C)CO4)cc23)ccc1Oc1ccn2ncnc2c1 [tucatinib]	2.79
C[C@H](NC(=O)CCC(F)(F)F)C(=O)N[C@@H]1C(=O)N(CCO)c2ncccc2-c2ccccc21 [crenigacestat]	3.44
C[C@]12CC[C@@H]3c4ccc(O)cc4C[C@@H](CCCCCCCCC[S+]([O-])CCCC(F)(F)C(F)(F)F)[C@H]3[C@@H]1CC[C@@H]2O (some centres not stated) [fulvestrant]	3.23
O=C(c1ccc(F)c(F)c1Nc1ccc(I)cc1F)N1CC(O)([C@@H]2CCCCN2)C1 [cobimetinib]	2.74
O=C(/C=C/c1cccnc1)NCCCCC1CCN(C(=O)c2ccccc2)CC1 [FK866]	0.0716
CS(=O)(=O)c1ccc(C(=O)Nc2ccc(Cl)c(-c3ccccn3)c2)c(Cl)c1 [vismodegib]	2.06
C=CCn1c(=O)c2cnc(Nc3ccc(N4CCN(C)CC4)cc3)nc2n1-c1cccc(C(C)(C)O)n1 [adavosertib]	3.35

Same assay, conditions: 0.1 µM; days in culture: 191

SMILES	CTG-3D luminescence at 96 h
COc1cc2c(Oc3ccc4[nH]c(C)cc4c3F)ncnc2cc1OCCCN1CCCC1 [cediranib]	2.43
CC(C)n1nc(-c2ccc3oc(N)nc3c2)c2c(N)ncnc21 [sapanisertib]	1.04
Cc1cc(Nc2ncnc3ccc(NC4=NC(C)(C)CO4)cc23)ccc1Oc1ccn2ncnc2c1 [tucatinib]	2.5
C[C@H](NC(=O)CCC(F)(F)F)C(=O)N[C@@H]1C(=O)N(CCO)c2ncccc2-c2ccccc21 [crenigacestat]	2.19
C[C@]12CC[C@@H]3c4ccc(O)cc4C[C@@H](CCCCCCCCC[S+]([O-])CCCC(F)(F)C(F)(F)F)[C@H]3[C@@H]1CC[C@@H]2O (some centres not stated) [fulvestrant]	2.95
O=C(c1ccc(F)c(F)c1Nc1ccc(I)cc1F)N1CC(O)([C@@H]2CCCCN2)C1 [cobimetinib]	1.88
O=C(/C=C/c1cccnc1)NCCCCC1CCN(C(=O)c2ccccc2)CC1 [FK866]	0.0805
CS(=O)(=O)c1ccc(C(=O)Nc2ccc(Cl)c(-c3ccccn3)c2)c(Cl)c1 [vismodegib]	3.23
C=CCn1c(=O)c2cnc(Nc3ccc(N4CCN(C)CC4)cc3)nc2n1-c1cccc(C(C)(C)O)n1 [adavosertib]	2.3

Same assay, conditions: 0.1 µM; days in culture: 209

SMILES	CTG-3D luminescence at 96 h
COc1cc2c(Oc3ccc4[nH]c(C)cc4c3F)ncnc2cc1OCCCN1CCCC1 [cediranib]	1.95
CC(C)n1nc(-c2ccc3oc(N)nc3c2)c2c(N)ncnc21 [sapanisertib]	0.676
Cc1cc(Nc2ncnc3ccc(NC4=NC(C)(C)CO4)cc23)ccc1Oc1ccn2ncnc2c1 [tucatinib]	2.02
C[C@H](NC(=O)CCC(F)(F)F)C(=O)N[C@@H]1C(=O)N(CCO)c2ncccc2-c2ccccc21 [crenigacestat]	1.91
C[C@]12CC[C@@H]3c4ccc(O)cc4C[C@@H](CCCCCCCCC[S+]([O-])CCCC(F)(F)C(F)(F)F)[C@H]3[C@@H]1CC[C@@H]2O (some centres not stated) [fulvestrant]	2.23
O=C(c1ccc(F)c(F)c1Nc1ccc(I)cc1F)N1CC(O)([C@@H]2CCCCN2)C1 [cobimetinib]	1.78
O=C(/C=C/c1cccnc1)NCCCCC1CCN(C(=O)c2ccccc2)CC1 [FK866]	0.0589
CS(=O)(=O)c1ccc(C(=O)Nc2ccc(Cl)c(-c3ccccn3)c2)c(Cl)c1 [vismodegib]	2.3
C=CCn1c(=O)c2cnc(Nc3ccc(N4CCN(C)CC4)cc3)nc2n1-c1cccc(C(C)(C)O)n1 [adavosertib]	1.89

Same assay, conditions: 0.1 µM; days in culture: 227

SMILES	CTG-3D luminescence at 96 h
COc1cc2c(Oc3ccc4[nH]c(C)cc4c3F)ncnc2cc1OCCCN1CCCC1 [cediranib]	6.23
CC(C)n1nc(-c2ccc3oc(N)nc3c2)c2c(N)ncnc21 [sapanisertib]	1.33
Cc1cc(Nc2ncnc3ccc(NC4=NC(C)(C)CO4)cc23)ccc1Oc1ccn2ncnc2c1 [tucatinib]	4.86
C[C@H](NC(=O)CCC(F)(F)F)C(=O)N[C@@H]1C(=O)N(CCO)c2ncccc2-c2ccccc21 [crenigacestat]	5.6
C[C@]12CC[C@@H]3c4ccc(O)cc4C[C@@H](CCCCCCCCC[S+]([O-])CCCC(F)(F)C(F)(F)F)[C@H]3[C@@H]1CC[C@@H]2O (some centres not stated) [fulvestrant]	5.59
O=C(c1ccc(F)c(F)c1Nc1ccc(I)cc1F)N1CC(O)([C@@H]2CCCCN2)C1 [cobimetinib]	4.53
O=C(/C=C/c1cccnc1)NCCCCC1CCN(C(=O)c2ccccc2)CC1 [FK866]	0.104
CS(=O)(=O)c1ccc(C(=O)Nc2ccc(Cl)c(-c3ccccn3)c2)c(Cl)c1 [vismodegib]	4.14
C=CCn1c(=O)c2cnc(Nc3ccc(N4CCN(C)CC4)cc3)nc2n1-c1cccc(C(C)(C)O)n1 [adavosertib]	6.24
